In PubChem BioAssay (NCI):
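The compound was tested at five concentrations on cells cultured in 96-well plates, with a 48-hour exposure period. TGI: concentration producing complete growth inhibition.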

How the values were obtained:
Test in all cases: inhibition of tumour cell growth, NCI panel, 48 h
SK-MEL-5 melanoma = system: SK-MEL-5 melanoma
SK-MEL-2 melanoma = system: SK-MEL-2 melanoma
RXF 393 renal = system: RXF 393 renal
NCI-H226 lung = system: NCI-H226 lung
UO-31 renal = system: UO-31 renal
SF-295 CNS = system: SF-295 CNS
UACC-62 melanoma = system: UACC-62 melanoma
SNB-75 CNS = system: SNB-75 CNS
HCC-2998 colon = system: HCC-2998 colon
HL-60(TB) leukemia = system: HL-60(TB) leukemia
RPMI-8226 leukemia = system: RPMI-8226 leukemia
OVCAR-5 ovarian = system: OVCAR-5 ovarian
COLO 205 colon = system: COLO 205 colon
UACC-257 melanoma = system: UACC-257 melanoma
SN12C renal = system: SN12C renal
T-47D breast = system: T-47D breast
MDA-MB-231 breast = system: MDA-MB-231 breast
DU-145 prostate = system: DU-145 prostate
MDA-MB-435 = system: MDA-MB-435

SMILES	TGI (SK-MEL-5 melanoma) [µM]	TGI (SK-MEL-2 melanoma) [µM]	TGI (RXF 393 renal) [µM]	TGI (NCI-H226 lung) [µM]	TGI (UO-31 renal) [µM]	TGI (SF-295 CNS) [µM]	TGI (UACC-62 melanoma) [µM]	TGI (SNB-75 CNS) [µM]	TGI (HCC-2998 colon) [µM]	TGI (HL-60(TB) leukemia) [µM]	TGI (RPMI-8226 leukemia) [µM]	TGI (OVCAR-5 ovarian) [µM]	TGI (COLO 205 colon) [µM]	TGI (UACC-257 melanoma) [µM]	TGI (SN12C renal) [µM]	TGI (T-47D breast) [µM]	TGI (MDA-MB-231 breast) [µM]	TGI (DU-145 prostate) [µM]	TGI (MDA-MB-435) [µM]
N#CCC(=O)N/N=C(\C(=O)Nc1ccc(Cl)c(Cl)c1)C1CN(c2ccccc2)N=C1N (centres undefined)	> 100	> 100	> 100	> 100	> 100	> 100	> 100	> 100	> 100	> 100	> 100	> 100	> 100	> 100	> 100				
COc1ccccc1/C=C1\CCC(CCN2CCOCC2)C1=O (centres undefined)	> 100	> 100	> 100	> 100	> 100	> 100	> 100	> 100	> 100	> 100	> 100	> 100		> 100	> 100				
O=C1C2CN(Cc3ccccc3)CC1CN(CC1CC1)C2	> 100	> 100	> 100	> 100	> 100	> 100	> 100	> 100		> 100	> 100	> 100	> 100	> 100	> 100				
COc1c(C)cc2c(c1O)C1NC(C2)[C@H](O)N2C3COC(=O)[C@@]4(CS[C@@H](c5c(OC(C)=O)c(C)c6c(c53)OCO6)C12)NCCC1=C4NC2C=CC=CC12 (some centres undefined)	< 0.01	< 0.01	< 0.01	< 0.01	0.0342	< 0.01	< 0.01	< 0.01	< 0.01	< 0.01	0.0161				0.0365				
CCOc1ccc(NC(=O)C2=C(C)NC(C)=C(C(=O)Nc3ccc(OCC)cc3)C2c2ccccc2)cc1	> 100	> 100	> 100	> 100	> 100	> 100		> 100	> 100	96.9	> 100	> 100	> 100	> 100	> 100				
NCCN1C(=O)C2C3c4ccccc4C(c4ccccc43)C2C1=O (centres undefined)	> 100	> 100		> 100	> 100	> 100	> 100	> 100	> 100	> 100	> 100	> 100	> 100	> 100	> 100				
COc1ccc(C=C(c2ccc(OCc3ccccc3)cc2)c2ccc(OCc3ccccc3)cc2)cc1	> 100	> 100	> 100	> 100	> 100	> 100	> 100	> 100	> 100	> 100	> 100	> 100	> 100	> 100	> 100				
CC(C)N1CN(C(C(=O)N[C@@H]2C(=O)N3C2SC(C)(C)C3C(=O)O)c2ccc(O)cc2)CSC1=S (some centres undefined)	> 100	> 100			> 100	> 100	> 100	> 100		> 100	> 100	> 100	> 100	> 100	> 100				
CCOC(=O)C1=CC(C)(C(=O)OCC)Nc2c(nc(OC)[nH]c2=O)N1 (centres undefined)	> 10	> 10	> 10	> 10	> 10	> 10		> 10	> 10		> 10	> 10	> 10	> 10	> 10	> 10	> 10	> 10	
C/C(=N\NC(=S)N(C)CCN(C)C(=S)N/N=C(\C)c1ccccn1)c1ccccn1	2.16	24.4	3.46	3.48	15.4	19.6	8.07	7.59	38	3.95	23.7	42	0.912	11	6.91	19	13.1	13.1	> 100
COC(=O)C1C2CC3C1C3C2C(=O)OC (centres undefined)	> 100	> 100	> 100	> 100	> 100	> 100	> 100	> 100	> 100			> 100	> 100	> 100	> 100	> 100	> 100	> 100	> 100
Brc1cc2c(cc1C1SCCS1)OCO2	> 100	> 100			> 100	> 100	> 100	> 100	> 100	> 100	> 100	> 100		> 100					
COc1cc(/C=C\c2cccnc2)cc(OC)c1OC	40.8		88.5	> 100	> 100	> 100	> 100	> 100		48	47.7	> 100	69	> 100	> 100				
O=c1c2cc([N+](=O)[O-])ccc2n2n1CCCC2	> 100		> 100	> 100	> 100	> 100	> 100	> 100	> 100	> 100	> 100	> 100	> 100	> 100	> 100	> 100	> 100	> 100	> 100
CC(C)SC(NC(=O)C1C(C)(C)CCC1(C)C)C(=O)O (centres undefined)	> 100	> 100		> 100	> 100		> 100	> 100	> 100	> 100	> 100	> 100	> 100		> 100		> 100	> 100	> 100
